Here are results for ten compounds from patent US20250051345A1, “PYRIDINE-3-CARBOXYLATE COMPOUNDS AS CAV1.2 ACTIVATORS” (Novartis AG, priority 2021, published 2025).

By EC50 is commonly meant the midpoint of the concentration-response curve.

Series [1] has as its target T1, human Cav1.2 (Homo sapiens (Human), UniProt Q13936). As to the kind of experiment: Sophion QPatch dose-response assay, whole-cell voltage clamp of barium currents in the Cav1.2-HEK293 (AUX) cell line. As to conditions: for QPatch Emax: maximal fold change of peak inward current. In kind it is cell-based. As to the method: (§1) Clonal isolation was achieved under Neomycin selection.
(§2) Each experimental run uses 1.5 mL of cells.
(§3) The protocol had eight liquid periods. […] The protocol had four liquid periods.
(In general: Patch clamp records ionic current or voltage across a cell membrane.)

The target in series [2] is T1, human Cav1.2. In words: QPatch channel biophysics assay (V1/2 voltage shift, tau of inactivation) in the Cav1.2-HEK293 (AUX) cell line. In kind it is cell-based. As to the method:
as §1, §2, §3

Series [3] is described as follows: Compound exposure in brain (cerebellum) and blood of wild-type mice. As to conditions: C57BL/6J male mice, i.p., one hour after administration. In kind it is in vivo, mouse. The source says: (§4) Compound administration and brain tissue collection.
Quantification of compound exposure.

The next series deals with cFos mRNA. As to the kind of experiment: cFos mRNA induction in cortex of wild-type mice (PK-PD). Format: in vivo, mouse. As to conditions: 3 mg/kg ip, one hour after administration. How it is done: as §4
Quantification of cFos mRNA induction. Tissue homogenization was performed using TissueLyser system for 96 well plates (Qiagen). First, frozen cortical samples were thawed, removed from RNAlater, and placed into TissueLyser tubes along with Buffer RLT containing 0.5% Reagent DX and one 5 mm TissueLyser metal bead. The TissueLyser tubes were loaded into a TissueLyser II tissue homogenizer for 3 rounds of homogenization, with each round lasting 5 minutes at 30 Hz bead-beating frequency. Total RNA was purified from the homogenate using RNeasy 96 Plus kit (Qiagen), RNA concentration and A260/A280 ratio were quantified via the Nanodrop (ThermoFisher), and all samples were normalized to 100 ng/μl concentration. […]
Quantitative PCR was performed on the cDNA samples using Quantitect Multiplex RT-PCR kit (Qiagen) in a 384-well assay format. […] On the ViiA7 Real-Time PCR system (ThermoFisher), the samples were heated to 95° C. for 15 minutes then cycled between 94° C. for 45 seconds and 60° C. for 45 seconds for 45 cycles. cFos Ct values were exported, normalized to GAPDH Ct values, and converted to relative fold change in expression using the delta-delta Ct relative quantification method. cFos fold changes between compound treatments and vehicle were analyzed by one-way ANOVA, followed by Tukey's post-hoc comparisons.

The mark [4] stands for this setting: 6-point dose response, 10 determinations per concentration, n = 1 unless stated.
Setting [5] is: shift of half-way channel activation voltage V1/2.
The mark [6] stands for this setting: comparative examples, single enantiomers of reported racemates.

T1 sequence (Q13936 whole entry): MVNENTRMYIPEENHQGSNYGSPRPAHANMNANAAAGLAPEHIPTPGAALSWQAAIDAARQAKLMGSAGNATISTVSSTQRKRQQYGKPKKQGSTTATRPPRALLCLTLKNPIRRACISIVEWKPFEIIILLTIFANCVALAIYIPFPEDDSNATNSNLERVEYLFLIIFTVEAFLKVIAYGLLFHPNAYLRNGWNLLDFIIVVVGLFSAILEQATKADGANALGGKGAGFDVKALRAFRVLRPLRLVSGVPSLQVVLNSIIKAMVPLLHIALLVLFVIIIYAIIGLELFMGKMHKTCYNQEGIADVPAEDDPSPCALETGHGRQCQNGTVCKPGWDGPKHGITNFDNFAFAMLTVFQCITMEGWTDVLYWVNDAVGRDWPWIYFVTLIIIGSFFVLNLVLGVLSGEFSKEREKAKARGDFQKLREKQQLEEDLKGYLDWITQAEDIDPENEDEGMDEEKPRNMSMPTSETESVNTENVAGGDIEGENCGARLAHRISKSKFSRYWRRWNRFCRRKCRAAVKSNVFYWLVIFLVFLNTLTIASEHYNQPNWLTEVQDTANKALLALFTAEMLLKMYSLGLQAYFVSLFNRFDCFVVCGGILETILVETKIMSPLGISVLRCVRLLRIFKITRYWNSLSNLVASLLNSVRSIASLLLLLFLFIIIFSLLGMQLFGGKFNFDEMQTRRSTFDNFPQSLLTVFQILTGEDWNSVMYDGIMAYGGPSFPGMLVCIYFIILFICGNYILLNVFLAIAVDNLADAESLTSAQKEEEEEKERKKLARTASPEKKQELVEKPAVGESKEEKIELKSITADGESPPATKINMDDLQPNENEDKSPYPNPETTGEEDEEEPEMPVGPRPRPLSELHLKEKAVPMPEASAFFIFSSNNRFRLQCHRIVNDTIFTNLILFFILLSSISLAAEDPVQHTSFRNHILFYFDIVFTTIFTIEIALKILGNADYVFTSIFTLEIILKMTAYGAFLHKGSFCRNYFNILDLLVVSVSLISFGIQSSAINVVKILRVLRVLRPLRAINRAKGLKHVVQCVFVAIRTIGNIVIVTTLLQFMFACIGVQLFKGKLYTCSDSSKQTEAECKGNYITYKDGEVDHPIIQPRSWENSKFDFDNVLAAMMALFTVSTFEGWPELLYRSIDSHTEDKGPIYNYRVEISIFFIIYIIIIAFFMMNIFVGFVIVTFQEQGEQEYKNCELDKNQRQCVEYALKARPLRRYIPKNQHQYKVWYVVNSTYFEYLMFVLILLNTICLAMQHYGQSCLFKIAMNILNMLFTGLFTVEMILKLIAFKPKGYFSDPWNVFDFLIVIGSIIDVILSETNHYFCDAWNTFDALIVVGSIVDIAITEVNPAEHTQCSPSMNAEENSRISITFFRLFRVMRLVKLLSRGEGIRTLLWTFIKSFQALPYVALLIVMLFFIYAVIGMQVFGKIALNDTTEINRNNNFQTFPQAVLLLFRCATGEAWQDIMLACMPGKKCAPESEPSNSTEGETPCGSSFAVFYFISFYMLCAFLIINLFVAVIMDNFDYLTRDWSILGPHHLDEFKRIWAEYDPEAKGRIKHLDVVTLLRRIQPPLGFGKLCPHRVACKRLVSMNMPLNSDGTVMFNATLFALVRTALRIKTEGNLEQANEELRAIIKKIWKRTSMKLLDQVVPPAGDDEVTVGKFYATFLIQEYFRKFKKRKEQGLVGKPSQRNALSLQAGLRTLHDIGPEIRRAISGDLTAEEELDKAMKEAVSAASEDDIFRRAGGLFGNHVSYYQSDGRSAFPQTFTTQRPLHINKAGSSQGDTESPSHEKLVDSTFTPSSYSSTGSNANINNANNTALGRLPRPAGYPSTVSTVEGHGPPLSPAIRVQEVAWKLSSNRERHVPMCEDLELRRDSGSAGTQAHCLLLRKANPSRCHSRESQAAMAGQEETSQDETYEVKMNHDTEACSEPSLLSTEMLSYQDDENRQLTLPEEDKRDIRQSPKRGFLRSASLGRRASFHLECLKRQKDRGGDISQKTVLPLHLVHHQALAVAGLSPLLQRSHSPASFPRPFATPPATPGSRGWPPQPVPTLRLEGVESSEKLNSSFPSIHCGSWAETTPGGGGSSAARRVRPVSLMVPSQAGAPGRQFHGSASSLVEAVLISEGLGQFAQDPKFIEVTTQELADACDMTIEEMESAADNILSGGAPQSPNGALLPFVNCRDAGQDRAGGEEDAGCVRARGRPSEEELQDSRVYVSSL

At human Cav1.2 [1] (setting [4]), `COC(=O)C1=C(C)NC2=C(C(=O)OC2)[C@H]1c1cncc(F)c1[C@@H](C)F` (single isomer, unassigned) [Example 1, methyl(S)-4-(5-fluoro-4-((R)-1-fluoroethyl)pyridin-3-yl)-2-methyl-5-oxo-1,4,5,7-tetrahydrofuro [3,4-b]pyridine-3-carboxylate or methyl(S)-4-(5-fluoro-4-((S)-1-fluoroethyl)pyridin-3-yl)-2-methyl-5-oxo-1,4,5,7-tetrahydrofuro [3,4-b]pyridine-3-carboxylate] returned an EC50 of 0.22 µM. The “QPatch Emax” value on human Cav1.2 [1] is recorded as 3.3. For the same compound, at human Cav1.2 [2] (setting [5]), the Biophysics voltage shift is on record as −6.6 mV. Besides, the “Brain: blood Ratio” value in series [3] was 0.2. The “%↑ cFOS mRNA cortex” value in the series with cFos mRNA amounted to 174%.
In the case of `COC(=O)C1=C(C(F)F)NC2=C(C(=O)OC2)[C@H]1c1cncc(F)c1[C@@H](C)F` (single isomer, unassigned) [Example 6, methyl 2-(difluoromethyl)-4-(5-fluoro-4-(1-fluoroethyl)pyridin-3-yl)-5-oxo-1,4,5,7-tetrahydrofuro [3,4-b]pyridine-3-carboxylate], the midpoint of the response on human Cav1.2 [1] (setting [4]), the EC50, lay at 0.25 µM. Further, the “QPatch Emax” value on human Cav1.2 [1] is 2.5. For the same compound, the Biophysics voltage shift on human Cav1.2 [2] (setting [5]) is listed as −5.6 mV.
With `COC(=O)C1=C(C)NC(C)=C([N+](=O)[O-])[C@H]1c1ccccc1C(F)(F)F` [Comparative Example 1, BayK8644], at human Cav1.2 [1] (comparative examples), the “QPatch Emax” value came out at 3.9.
Compound `CCOC(=O)C1=C(C)NC2=C(C(=O)OC2)[C@H]1c1ccccc1OCc1ccccc1` [Comparative Example 2, RS30124] displayed a concentration giving a half-maximal response (EC50) on human Cav1.2 [1] (setting [6]) of 0.45 µM. Further, the “QPatch Emax” value at human Cav1.2 [1] (comparative examples) was 4.3. The Biophysics voltage shift at human Cav1.2 [2] (comparative examples) is on record as −15.4 mV.
In turn, `CCOC(=O)C1=C(C)NC2=C(C(=O)OC2)[C@H]1c1ccccc1OC(F)F` [Comparative Example 3, CGP028392] had a half-maximal effective concentration (EC50) on human Cav1.2 [1] (setting [6]) of 0.28 µM. Moreover, on human Cav1.2 [1] (comparative examples), the “QPatch Emax” value came out at 2.2. Besides, the Biophysics voltage shift at human Cav1.2 [2] (comparative examples) was −6.7 mV.
Consider `COC(=O)C1=C(C)NC2=C(C(=O)OC2)C1c1ccccc1C` (stereo not shown) [Comparative Example 4], for which it took 2.24 µM to reach a half-maximal effect on human Cav1.2 [1] (setting [6]) (EC50). Besides, the “QPatch Emax” value at human Cav1.2 [1] (comparative examples) came out at 1.4.
Consider `COC(=O)C1=C(C)NC2=C(C(=O)OC2)C1c1ccccc1C(F)(F)F` (stereo not shown) [Comparative Example 5], for which, at human Cav1.2 [1] (setting [6]), the EC50 turned out to be 0.36 µM. The “QPatch Emax” value on human Cav1.2 [1] (comparative examples) was determined as 1.4. The Biophysics voltage shift at human Cav1.2 [2] (comparative examples) is listed as −4.3 mV.
In turn, `COC(=O)C1=C(C)NC2=C(C(=O)OC2)C1c1ccccc1OC(F)F` (stereo not shown) [Comparative Example 6] showed an EC50 at human Cav1.2 [1] (setting [6]) of 0.51 µM. The “QPatch Emax” value at human Cav1.2 [1] (comparative examples) stood at 1.7. Besides, on human Cav1.2 [2] (comparative examples), the Biophysics voltage shift was −7.1 mV.
`CCOC(=O)C1=C(C)NC2=C(C(=O)OC2)C1c1ccccc1C(F)(F)F` (stereo not shown) [Comparative Example 7] came in with an EC50 at human Cav1.2 [1] (setting [6]) of 0.93 µM. Further, the “QPatch Emax” value on human Cav1.2 [1] (comparative examples) amounted to 1.9.
`COC(=O)C1=C(CF)NC2=C(C(=O)OC2)[C@H]1c1cncc(F)c1[C@@H](C)F` [Example 2, methyl (R)-4-(5-fluoro-4-((R)-1-fluoroethyl)pyridin-3-yl)-2-(fluoromethyl)-5-oxo-1,4,5,7-tetrahydrofuro [3,4-b]pyridine-3-carboxylate] displayed an EC50 at human Cav1.2 [1] (setting [4]) of 0.061 µM. Moreover, on human Cav1.2 [1] (comparison of stereoisomers), the “activity in the Sophion QPatch assay relative to the enantiomer” value is on record as “higher activity than its corresponding enantiomer”. Also, on human Cav1.2 [1], the “QPatch Emax” value was 2.2. On human Cav1.2 [2] (setting [5]), the Biophysics voltage shift is listed as −5.9 mV. Besides, the Kp at 1 h in series [3] (mouse, brain (cerebellum) / blood, ip, 3 mg/kg, read-out: Brain: blood Ratio) came to 1.5. Moreover, the “%↑ cFOS mRNA cortex” value in the series with cFos mRNA worked out at 384%.
